In ChEMBL document CHEMBL1201862, “PubChem BioAssay data set” (2004):
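In this assay, cells in 96-well plates receive the compound at five concentrations for 48 hours. Endpoints are linearly interpolated between the surrounding concentrations. GI50 marks 50% less growth.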 Active and inactive are the calls of the source. No stated cut-off is given here; in the data, active = GI50 up to about 1.1 µM and inactive = higher.

How the values were obtained:
Assay in all cases: inhibition of tumour cell growth, NCI panel, 48 h
[1] = system: CAKI-1
[2] = system: UACC-62
[3] = system: OVCAR-5
[4] = system: UACC-257
[5] = system: 786-0
[6] = system: SF-539
[7] = system: SF-295
[8] = system: ACHN
[9] = system: TK-10
[10] = system: HCT-15
[11] = system: NCI-H460
[12] = system: MDA-N
[13] = system: SN12C
[14] = system: SK-MEL-5
[15] = system: SW-620
[16] = system: CCRF-CEM
[17] = system: NCI-H23
[18] = system: M14
[19] = system: MCF7
[20] = system: NCI-H522
[21] = system: A498
[22] = system: HOP-62
[23] = system: SF-268
[24] = system: HCC 2998
[25] = system: EKVX
[26] = system: MDA-MB-231
[27] = system: SNB-19
[28] = system: Malme-3M
[29] = system: RXF 393
[30] = system: MDA-MB-435
[31] = system: RPMI-8226
[32] = system: SK-OV-3
[33] = system: IGROV-1
[34] = system: Hs-578T
[35] = system: DU-145
[36] = system: LOX IMVI
[37] = system: OVCAR-8
[38] = system: OVCAR-3
[39] = system: HT-29
[40] = system: A549
[41] = system: HOP-92
[42] = system: SR
[43] = system: PC-3
[44] = system: HL-60
[45] = system: HCT-116
[46] = system: KM12
[47] = system: SK-MEL-28
[48] = system: MOLT-4
[49] = system: UO-31
[50] = system: BT-549
[51] = system: SNB-75
[52] = system: COLO 205
[53] = system: NCI/ADR-RES
[54] = system: SK-MEL-2
[55] = system: U-251
[56] = system: K562
[57] = system: T47D
[58] = system: OVCAR-4
[59] = system: NCI-H226

Measured: GI50

O=[N+]([O-])c1ccc2sc(/C=N/c3ccc(O)cc3)cc2c1
inactive: [1] 20.6 µM | [2] 23.1 µM | [3] 62.2 µM | [4] 23 µM | [5] 19 µM | [6] 22 µM | [7] 42.3 µM | [8] 32.2 µM | [9] 63.7 µM | [11] 46 µM | [12] 27.3 µM | [13] 30.1 µM | [14] 21.8 µM | [15] 17 µM | [16] 15.3 µM | [17] 27.9 µM | [18] 31.3 µM | [19] 20.1 µM | [20] 27.7 µM | [21] 72.8 µM | [22] 34.7 µM | [23] 29.5 µM | [24] 21.8 µM | [25] 48.1 µM | [26] 17.8 µM | [27] 34 µM | [28] 28.3 µM | [29] 21.5 µM | [30] 18.2 µM | [31] 22.3 µM | [32] 84.7 µM | [33] 31.4 µM | [34] 18.9 µM | [35] 32.8 µM | [36] 23.3 µM | [37] 32.2 µM | [38] 15.2 µM | [39] 46.9 µM | [40] 48 µM | [41] 32.4 µM | [42] 29.1 µM | [43] 29.6 µM | [44] 18.9 µM | [45] 27.9 µM | [46] 33.7 µM | [47] 36.1 µM | [48] 15.8 µM | [49] 41 µM | [50] 22.3 µM | [51] 25.8 µM | [52] 38 µM | [53] 28.8 µM | [54] 22 µM | [55] 19.8 µM | [56] 18.1 µM
32.4 µM: [10]

O=C(N/N=C(COc1ccc([N+](=O)[O-])cc1)\N=C\c1ccncc1)c1ccncc1
> 100 µM: [10]
inactive: [1] > 100 µM | [2] > 100 µM | [3] > 100 µM | [4] > 100 µM | [5] > 100 µM | [6] > 100 µM | [7] > 100 µM | [8] > 100 µM | [9] > 100 µM | [11] > 100 µM | [12] > 100 µM | [13] > 100 µM | [15] > 100 µM | [57] > 100 µM | [16] > 100 µM | [17] > 100 µM | [18] > 100 µM | [19] > 100 µM | [20] > 100 µM | [58] > 100 µM | [21] > 100 µM | [22] > 100 µM | [23] > 100 µM | [24] > 100 µM | [25] > 100 µM | [26] > 100 µM | [27] > 100 µM | [28] > 100 µM | [29] > 100 µM | [30] > 100 µM | [31] > 100 µM | [32] > 100 µM | [33] > 100 µM | [35] > 100 µM | [37] 60.1 µM | [38] > 100 µM | [39] > 100 µM | [40] > 100 µM | [43] > 100 µM | [44] > 100 µM | [45] > 100 µM | [46] > 100 µM | [47] > 100 µM | [48] > 100 µM | [50] > 100 µM | [51] 94.6 µM | [52] > 100 µM | [53] > 100 µM | [59] > 100 µM | [54] > 100 µM | [55] > 100 µM | [56] > 100 µM
active: [36] 0.564 µM

O=C(O)CNC(=O)C(CSC(=O)OCC1c2ccccc2-c2ccccc21)NC(=O)CCC(NC(=O)OCC1c2ccccc2-c2ccccc21)C(=O)O (configuration not stated)
active: [36] 0.0259 µM
20 µM: [10]
inactive: [1] 4.57 µM | [3] > 100 µM | [4] > 100 µM | [5] 3.05 µM | [6] 16.3 µM | [7] 16.6 µM | [8] 18.4 µM | [9] 22.2 µM | [11] 18.6 µM | [12] 28.1 µM | [13] 16.5 µM | [14] 63.4 µM | [15] 19 µM | [16] 20.2 µM | [17] 27 µM | [18] > 100 µM | [19] > 100 µM | [20] 1.57 µM | [58] 15 µM | [22] 14.2 µM | [23] 17.5 µM | [24] > 100 µM | [25] 17.8 µM | [26] 17.9 µM | [27] > 100 µM | [28] 20.7 µM | [29] 18.7 µM | [30] 18.9 µM | [31] 21.5 µM | [32] > 100 µM | [33] 13.1 µM | [34] 68.1 µM | [35] 15.3 µM | [37] 16.4 µM | [38] > 100 µM | [40] 14.3 µM | [41] 21.7 µM | [42] 3.49 µM | [43] 15.5 µM | [44] 28.8 µM | [45] 18 µM | [47] > 100 µM | [48] 20.1 µM | [49] 18.7 µM | [50] > 100 µM | [52] 16.5 µM | [53] 17.5 µM | [59] 38.8 µM | [54] > 100 µM | [56] 17.1 µM
